Laboratory results from patent publication US9034887B2, “Dihydroorotate dehydrogenase as antifungal drug target and quinazolinone-based inhibitors thereof” (F2G Limited, priority 2008, dated 2015).
pIC50: −log10 of the molar value. Converted amounts (≈) assume the structure as drawn.

Experiments:
Aspergillus flavus [1] = assay: MIC in RPMI medium, A. flavus; format: cell-based; conditions: 24-48 hrs at 35° C., >80% growth inhibition, read-out: MIC grade, A. flavus
Method: (§1) Between 1 and 5 mgs of compound were accurately weighed out into a sterile Eppendorf tube. The compound was dissolved in DMSO to give a solution containing 5 mg/mL. Tubes were stored at −20° C. until required.
(§2) On the day of testing thawed solutions were vortex mixed to ensure homogeneity. 30 μL of solution was removed and added to 570 μL of sterile water in a separate sterile Eppendorf. The thoroughly mixed solution was used to prepare a series of doubling dilutions in water, in a deep well plate. Thirteen replicate plates were prepared using a Minitrak by aspirating 20 μL from each well into eleven clear polystyrene 96 well plates.
(§3) Assays were also performed in RPMI medium. To perform MIC tests in this medium, dilutions of compounds are prepared in microtitre plates as described above. Fungal strains to be tested are grown and harvested in an identical manner to that described above, and each organism suspension was diluted in RPMI medium, containing 2% glucose and 0.135 M MOPS buffer (pH 7.0) to 0.5-2×10^4 cfu/mL, rather than in YAG medium. 80 μL of an organism suspension was added to each well of the plate containing drug dilutions.
(§4) All plates were incubated for 24-48 hrs at 35° C. Growth was assessed by monitoring the optical density at 485 nm for each well. […] The following organisms were tested: Aspergillus flavus, Aspergillus fumigatus AF293 and AF210, Aspergillus niger and Aspergillus terreus AT4 and AT49.

Aspergillus flavus [2] = assay: MIC in YAG medium, A. flavus; format: cell-based; conditions: 24 hrs at 35° C., >70% growth inhibition, read-out: MIC grade, A. flavus
Method: as §1, §2
(§5) Spores of Aspergillus spp. (Aspergillus fumigatus [two strains], Aspergillus terreus [two strains], Aspergillus niger and Aspergillus flavus) were harvested from cultures grown on Sabarauds agar for 5 days, and resuspended in PBS/Tween 80 to approx 1×10^7 cfu/mL. Each organism suspension was diluted in YAG medium (1% glucose, 1% ammonium chloride and 0.5% yeast extract) to 0.5-2×10^4 cfu/mL. 80 μL of an organism suspension was added to each well of the plate containing drug dilutions.
(§6) All plates were incubated for 24 hrs at 35° C. Growth was assessed by monitoring the optical density at 485 nm for each well. The MIC of a compound is the lowest drug concentration that inhibits growth of an organism by >70% compared with a drug free control. MICs are recorded as mg/L. In cases where the MIC of an organism is […] the MIC is repeated using a concentration range of 0.5-0.0005 mg/L.

Aspergillus niger [3] = assay: MIC in RPMI medium, A. niger; format: cell-based; conditions: 24-48 hrs at 35° C., >80% growth inhibition, read-out: MIC grade, A. niger
Method: as §1, §2, §3, §4

[4] = tested on: Aspergillus fumigatus AF210; assay: MIC in RPMI medium, A. fumigatus 210; format: cell-based; conditions: 24-48 hrs at 35° C., >80% growth inhibition, read-out: MIC grade, A. fumigatus 210
Method: as §1, §2, §3, §4

A. fumigatus 210 = assay: MIC in YAG medium, A. fumigatus 210; format: cell-based; conditions: Aspergillus fumigatus, 24 hrs at 35° C., >70% growth inhibition, read-out: MIC grade, A. fumigatus 210
Method: as §1, §2, §5, §6

Aspergillus terreus AT4 = assay: MIC in RPMI medium, A. terreus; format: cell-based; conditions: 24-48 hrs at 35° C., >80% growth inhibition, read-out: MIC grade, A. terreus
Method: as §1, §2, §3, §4

A. terreus 49 = assay: MIC in YAG medium, A. terreus 49; format: cell-based; conditions: Aspergillus terreus, 24 hrs at 35° C., >70% growth inhibition, read-out: MIC grade, A. terreus 49
Method: as §1, §2, §5, §6

[5] = tested on: Aspergillus fumigatus AF293; assay: MIC in RPMI medium, A. fumigatus; format: cell-based; conditions: 24-48 hrs at 35° C., >80% growth inhibition, read-out: MIC grade, A. fumigatus
Method: as §1, §2, §3, §4

Aspergillus terreus = assay: MIC in YAG medium, A. terreus; format: cell-based; conditions: 24 hrs at 35° C., >70% growth inhibition, read-out: MIC grade, A. terreus
Method: as §1, §2, §5, §6

Aspergillus terreus AT49 = assay: MIC in RPMI medium, A. terreus 49; format: cell-based; conditions: 24-48 hrs at 35° C., >80% growth inhibition, read-out: MIC grade, A. terreus 49
Method: as §1, §2, §3, §4

Aspergillus niger [6] = assay: MIC in YAG medium, A. niger; format: cell-based; conditions: 24 hrs at 35° C., >70% growth inhibition, read-out: MIC grade, A. niger
Method: as §1, §2, §5, §6

Aspergillus fumigatus = assay: MIC in YAG medium, A. fumigatus; format: cell-based; conditions: 24 hrs at 35° C., >70% growth inhibition, read-out: MIC grade, A. fumigatus
Method: as §1, §2, §5, §6

[7] = molecular target: T1, Recombinant DHODH from human (Homo sapiens, UniProt Q02127); assay: DHODH inhibition screen (DCIP reduction, 600 nm), human enzyme; format: biochemical; conditions: Table 3, read-out: IC50 values for Compound Examples 1 to 15 identified from screens, Human
T1 construct: His-tag; NusA (Nus-tag) fusion of vector pET43.1 (own knowledge of the vector) (N); made in house; host or cells: E. coli BL21 DE3
T1 sequence (Q02127 31-395 limits assumed): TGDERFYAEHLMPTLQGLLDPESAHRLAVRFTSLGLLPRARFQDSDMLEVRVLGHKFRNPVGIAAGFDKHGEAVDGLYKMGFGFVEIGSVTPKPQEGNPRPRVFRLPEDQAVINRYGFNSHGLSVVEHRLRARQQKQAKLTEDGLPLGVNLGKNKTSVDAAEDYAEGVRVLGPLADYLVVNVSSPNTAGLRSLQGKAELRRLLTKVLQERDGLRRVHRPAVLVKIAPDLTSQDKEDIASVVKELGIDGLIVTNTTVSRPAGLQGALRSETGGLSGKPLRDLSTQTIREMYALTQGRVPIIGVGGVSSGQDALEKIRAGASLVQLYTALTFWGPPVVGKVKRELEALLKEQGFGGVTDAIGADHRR
Method: (§7) 1. The following buffer and stock solution were prepared:
Coenzyme Q2 (Sigma) was dissolved in DMSO to give a concentration of 10 mg/ml. […] The stock solution was made with 127.36 μl DHO, 127.36 μl DCIP and 318.4 μl Coenzyme Q2, made up to 80 ml with Buffer A. Final concentrations in assay wells were; DHO, 500 μM; Coenzyme Q, 50 μM; DCIP, 100 μM.
2. […] Duplicate sets of plates were used such that one set received enzyme while a control set received no enzyme.
3. […] Then 20 μl of DHODH solution was added to all the +enzyme plates and 20 μl of Buffer A was added to all the control −enzyme plates.
(§8) 4. 20 μl of DHO/Coenzyme Q2/DCIP solution was added to all the wells, after which plates were incubated at room temperature for […] and then read on a Tecan Safire spectrophotometer at 600 nm.
Recombinant DHODH from human or C. albicans was assayed in the same way. It is necessary to adjust the enzyme concentration and reaction time to take into account variations in activity of enzyme batches, thus the incubation time was 20 minutes for the C. albicans enzyme and 34 minutes for the human enzyme.

[8] = molecular target: Recombinant A. fumigatus DHODH (Aspergillus fumigatus, UniProt Q4X169); assay: DHODH inhibition screen (DCIP reduction, 600 nm), A. fumigatus enzyme; format: biochemical
Chain of Recombinant A. fumigatus DHODH (Q4X169 entry or part of it): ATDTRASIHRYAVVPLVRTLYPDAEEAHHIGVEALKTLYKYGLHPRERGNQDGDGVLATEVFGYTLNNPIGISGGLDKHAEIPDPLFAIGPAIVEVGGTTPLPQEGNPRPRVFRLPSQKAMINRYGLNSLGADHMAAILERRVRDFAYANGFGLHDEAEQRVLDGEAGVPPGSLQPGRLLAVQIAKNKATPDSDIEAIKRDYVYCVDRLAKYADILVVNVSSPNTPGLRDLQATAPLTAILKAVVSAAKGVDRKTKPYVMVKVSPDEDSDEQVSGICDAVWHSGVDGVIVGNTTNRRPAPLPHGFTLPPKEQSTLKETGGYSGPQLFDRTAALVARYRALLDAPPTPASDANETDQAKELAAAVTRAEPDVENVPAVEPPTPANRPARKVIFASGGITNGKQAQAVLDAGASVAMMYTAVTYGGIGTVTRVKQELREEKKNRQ
Method: as §7
Buffer A: 62.5 mM TrisHCl (pH8.0), 150 mM NaCl, 10% v/v glycerol
DHO/Coenzyme Q2/DCIP solution: 19.848 mg dihydroorotate (DHO; Sigma) was dissolved in 160 μl DMSO. Coenzyme Q2 (Sigma) was dissolved in DMSO to give a concentration of 10 mg/ml. 7.236 mg 2,6-dichloroindophenol (DCIP; Sigma) was dissolved in 160 μl DMSO. The stock solution was made with 127.36 μl DHO, 127.36 μl DCIP and 318.4 μl Coenzyme Q2, made up to 80 ml with Buffer A. Final concentrations in assay wells were; DHO, 500 μM; Coenzyme Q, 50 μM; DCIP, 100 μM.
2. Compounds were aliquotted into 384-well microtitre plates at a range of dilutions to give final concentrations in the assay of […]. Duplicate sets of plates were used such that one set received enzyme while a control set received no enzyme. Since compounds are frequently dissolved in DMSO or a DMSO/water mixture, assays were set up to give a final concentration of 1% (v/v) DMSO in wells.
3. Recombinant A. fumigatus DHODH was suspended in Buffer A to give a concentration of 1435.8 ng protein in 20 μl. Then 20 μl of DHODH solution was added to all the +enzyme plates and 20 μl of Buffer A was added to all the control −enzyme plates.
as §8
Recombinant DHODH from human or C. albicans was assayed in the same way. It is necessary to adjust the enzyme concentration and reaction time to take into account variations in activity of enzyme batches, thus the incubation time was 20 minutes for the C. albicans enzyme and 34 minutes for the human enzyme. Compounds are screened against a fungal and human enzyme to identify compounds which are selective for the fungal enzyme.

Compound | MIC (Aspergillus flavus [1]) [µg/mL] | MIC (Aspergillus flavus [2]) [µg/mL] | MIC (Aspergillus niger [3]) [µg/mL] | MIC [4] [µg/mL] | MIC (A. fumigatus 210) [µg/mL] | MIC (Aspergillus terreus AT4) [µg/mL] | MIC (A. terreus 49) [µg/mL] | MIC [5] [µg/mL] | MIC (Aspergillus terreus) [µg/mL] | MIC (Aspergillus terreus AT49) [µg/mL] | MIC (Aspergillus niger [6]) [µg/mL] | MIC (Aspergillus fumigatus) [µg/mL] | pIC50 [7] | pIC50 [8]
COc1ccccc1-n1c(SC(C)C)nc2cc(C)ccc2c1=O [Compound Example 1, 2-Isopropylsulfanyl-3-(2-methoxy-phenyl)-7-methyl-3H-quinazolin-4-one] | > 10 | < 1 | > 10 | 1 to 10 (≈ 2.94 to 29.4 µM) | < 1 | < 1 | < 1 | 1 to 10 (≈ 2.94 to 29.4 µM) | < 1 | < 1 | < 1 | < 1 |  | 
CCSc1nc2cccc(OC)c2c(=O)n1-c1ccccc1OC [Compound Example 12, 2-Ethylsulfanyl-5-methoxy-3-(2-methoxy-phenyl)-3H-quinazolin-4-one] | > 10 | 1 to 10 (≈ 2.92 to 29.2 µM) | < 1 | 1 to 10 (≈ 2.92 to 29.2 µM) | < 1 | 1 to 10 (≈ 2.92 to 29.2 µM) | < 1 | 1 to 10 (≈ 2.92 to 29.2 µM) | 1 to 10 (≈ 2.92 to 29.2 µM) | 1 to 10 (≈ 2.92 to 29.2 µM) | < 1 | < 1 | 3.93 | 4.57
CC(C)Sc1nc2ccccc2c(=O)n1-c1ccccc1C(C)C [Compound Example 8, 3-(2-Isopropyl-phenyl)-2-isopropylsulfanyl-3H-quinazolin-4-one] | > 10 | > 10 | < 1 | 1 to 10 (≈ 2.95 to 29.5 µM) | < 1 | > 10 | < 1 | < 1 | < 1 | 1 to 10 (≈ 2.95 to 29.5 µM) | < 1 | < 1 | 3.88 | 4.91
COc1ccccc1-n1c(SC(C)C)nc2cccc(C)c2c1=O [Compound Example 3, 2-Isopropylsulfanyl-3-(2-methoxy-phenyl)-5-methyl-3H-quinazolin-4-one] | > 10 | > 10 | < 1 | 1 to 10 (≈ 2.94 to 29.4 µM) | < 1 | > 10 | < 1 | 1 to 10 (≈ 2.94 to 29.4 µM) | < 1 | 1 to 10 (≈ 2.94 to 29.4 µM) | < 1 | < 1 |  | 
COc1ccccc1-n1c(SC(C)C)nc2ccccc2c1=O [Compound Example 7, 2-Isopropylsulfanyl-3-(2-methoxy-phenyl)-3H-quinazolin-4-one] | > 10 | > 10 | < 1 | 1 to 10 (≈ 3.06 to 30.6 µM) | < 1 | 1 to 10 (≈ 3.06 to 30.6 µM) | 1 to 10 (≈ 3.06 to 30.6 µM) | 1 to 10 (≈ 3.06 to 30.6 µM) | < 1 | 1 to 10 (≈ 3.06 to 30.6 µM) | < 1 | < 1 | 4.30 | 4.94
COc1ccccc1-n1c(SC(C)C)nc2cccc(OC)c2c1=O [Compound Example 4, 2-Isopropylsulfanyl-5-methoxy-3-(2-methoxy-phenyl)-3H-quinazolin-4-one] | > 10 | 1 to 10 (≈ 2.81 to 28.1 µM) | < 1 | 1 to 10 (≈ 2.81 to 28.1 µM) | < 1 | 1 to 10 (≈ 2.81 to 28.1 µM) | < 1 | < 1 | < 1 | 1 to 10 (≈ 2.81 to 28.1 µM) | < 1 | < 1 | 4.14 | 5.31
COc1ccccc1-n1c(SC(C)C)nc2ccc(C)cc2c1=O [Compound Example 2, 2-Isopropylsulfanyl-3-(2-methoxy-phenyl)-6-methyl-3H-quinazolin-4-one] | > 10 | > 10 | < 1 | 1 to 10 (≈ 2.94 to 29.4 µM) | < 1 | > 10 | < 1 | 1 to 10 (≈ 2.94 to 29.4 µM) | < 1 | 1 to 10 (≈ 2.94 to 29.4 µM) | < 1 | < 1 |  | 
